Patent US7304050B2, “Antibacterial agents” (Pfizer Inc., priority 2003, dated 2007)
≈ marks a conversion by molar mass, not a printed value.

Assays:
[1] = system: S pyogenes C203; experiment: Antibacterial assay (Test A), microtitration MIC, Gram positive; type: cell-based; details: Gram Positive Bacteria; strain C203; read-out: Minimum Inhibitory Concentrations S pyogenes C203
Procedure: (§1) The compounds of the present invention were tested against an assortment of Gram-negative and Gram-positive organisms using standard microtitration techniques (Cohen et. al., Antimicrob., 1985;28:766;Heifetz, et. al., Antimicrob., 1974;6: 124).

[2] = system: E. faecalis MGH-2; experiment: as above; type: cell-based; details: Enterococcus faecalis, MGH2; Gram Positive Bacteria; strain MGH-2; read-out: Minimum Inhibitory Concentrations E. faecalis MGH-2
Procedure: as §1

[3] = system: S. aureus UC-76; experiment: as above; type: cell-based; details: Staphylococcus aureus, UC76; Gram Positive Bacteria; strain UC-76; read-out: Minimum Inhibitory Concentrations S. aureus UC-76
Procedure: as §1

[4] = system: E. coli Tol C; experiment: Antibacterial assay (Test A), microtitration MIC, Gram negative; type: cell-based; details: Escherichia coli, read-out: Minimum Inhibitory Concentrations E. coli Tol C
Procedure: as §1

[5] = system: H. influenzae HI3542; experiment: as above; type: cell-based; details: Haemophilus influenzae; Gram Negative Bacteria; strain HI3542; read-out: Minimum Inhibitory Concentrations H. influenzae HI3542
Procedure: as §1

[6] = system: M. catarrhalis BC3534; experiment: as above; type: cell-based; details: Moraxella catarrhalis; Gram Negative Bacteria; strain BC3534; read-out: Minimum Inhibitory Concentrations M. catarrhalis BC3534
Procedure: as §1

[7] = system: E. coli transcription and translation (TnT); type: biochemical

Molecule `CC(=O)NC[C@H]1CN(c2ccc3c(c2)CCCN(c2c(F)cc4c(=O)c(C(=O)O)cn(C5CC5)c4c2F)C3)C(=O)O1` (stereo in doubt) [Example 13, 7-{7-[5-(Acetylamino-methyl)-2-oxo-oxazolidin-3-yl]-1,3,4,5-tetrahydro-benzo[c]azepin-2-yl}-1-cyclopropyl-6,8-difluoro-4-oxo-1,4-dihydro-quinoline-3-carboxylic Acid] has an MIC [1] of 2 µg/mL (≈ 3.53 µM), an MIC [2] of 8 µg/mL (≈ 14.1 µM) and an MIC [3] of 0.5 µg/mL (≈ 0.883 µM). For the same molecule, the MIC [4] was 4 µg/mL (≈ 7.06 µM), the MIC [5] was 0.06 µg/mL (≈ 0.106 µM) and the MIC [6] was 1 µg/mL (≈ 1.77 µM). The “Inhibitory concentration in E. coli cell-free transcription/translation (TnT) assay” value [7] was 0.6 µg/mL.

For `CC(=O)NC[C@H]1CN(c2ccc3c(c2)CCCN(c2c(F)cc4c(=O)c(C(=O)O)cn(C5CC5)c4c2Cl)C3)C(=O)O1` [Example 1, 7-{7-[5-(Acetylamino-methyl)-2-oxo-oxazolidin-3-yl]-1,3,4,5-tetrahydro-benzo[c]azepin-2-yl}-8-chloro-1-cyclopropyl-6-fluoro-4-oxo-1,4-dihydro-quinoline-3-carboxylic Acid], the MIC [1] was 2 µg/mL (≈ 3.43 µM), the MIC [2] was 1 µg/mL (≈ 1.72 µM) and the MIC [3] was 0.06 µg/mL (≈ 0.103 µM). For the same molecule, the MIC [4] was 2 µg/mL (≈ 3.43 µM), the MIC [5] was 0.06 µg/mL (≈ 0.103 µM) and the MIC [6] was 0.25 µg/mL (≈ 0.429 µM). For the same molecule, the “Inhibitory concentration in E. coli cell-free transcription/translation (TnT) assay” value [7] was 9.4 µg/mL.

Molecule `CC(=O)NC[C@H]1CN(c2ccc3c(c2)CCCN(c2c(F)cc4c(=O)c(C(=O)O)cn5c4c2OCC5C)C3)C(=O)O1` (stereo partly drawn) [Example 5, 9-{7-[5-(Acetylamino-methyl)-2-oxo-oxazolidin-3-yl]-1,3,4,5-tetrahydro-benzo[c]azepin-2-yl}-8-fluoro-3-methyl-6-oxo-2,3-dihydro-6 H-1-oxa-3a-aza-phenalene-5-carboxylic Acid] has an MIC [1] of 8 µg/mL (≈ 14.2 µM), an MIC [2] of 32 µg/mL (≈ 56.7 µM) and an MIC [3] of 1 µg/mL (≈ 1.77 µM). The MIC [4] was 8 µg/mL (≈ 14.2 µM), the MIC [5] was 0.06 µg/mL (≈ 0.106 µM) and the MIC [6] was 2 µg/mL (≈ 3.54 µM). For the same molecule, the “Inhibitory concentration in E. coli cell-free transcription/translation (TnT) assay” value [7] was 22.4 µg/mL.

With `COc1c(N2CCc3ccc(N4C[C@H](CNC(C)=O)OC4=O)cc3CC2)c(F)c(C)c2c(=O)c(C(=O)O)cn(C3CC3)c12` [Example 6, 7-{7-[5-(Acetylamino-methyl)-2-oxo-oxazolidin-3-yl]-1,2,4,5-tetrahydro-benzo[d]azepin-3-yl}-1-cyclopropyl-6-fluoro-8-methoxy-5-methyl-4-oxo-1,4-dihydro-quinoline-3-carboxylic Acid] the MIC [1] was 0.25 µg/mL (≈ 0.422 µM), the MIC [2] was 0.25 µg/mL (≈ 0.422 µM) and the MIC [3] was 0.06 µg/mL (≈ 0.101 µM). It also gave an MIC [4] of 2 µg/mL (≈ 3.37 µM), an MIC [5] of 0.06 µg/mL (≈ 0.101 µM) and an MIC [6] of 0.13 µg/mL (≈ 0.219 µM). The “Inhibitory concentration in E. coli cell-free transcription/translation (TnT) assay” value [7] was 9.6 µg/mL.

For `COc1c(N2CCc3ccc(N4C[C@H](CNC(C)=O)OC4=O)cc3CC2)c(F)cc2c(=O)c(C(=O)O)cn(C3CC3)c12` [Example 7, 7-{7-[5-(Acetylamino-methyl)-2-oxo-oxazolidin-3-yl]-1,2,4,5-tetrahydro-benzo[d]azepin-3-yl}-1-cyclopropyl-6-fluoro-8-methoxy-4-oxo-1,4-dihydro-quinoline-3-carboxylic Acid], the MIC [1] was 1 µg/mL (≈ 1.73 µM), the MIC [2] was 0.5 µg/mL (≈ 0.864 µM) and the MIC [3] was 0.06 µg/mL (≈ 0.104 µM). For the same molecule, the MIC [4] was 2 µg/mL (≈ 3.46 µM), the MIC [5] was 0.06 µg/mL (≈ 0.104 µM) and the MIC [6] was 0.25 µg/mL (≈ 0.432 µM). For the same molecule, the “Inhibitory concentration in E. coli cell-free transcription/translation (TnT) assay” value [7] was 11.8 µg/mL.

`CC(=O)NC[C@H]1CN(c2ccc3c(c2)CCN(c2nc4c(cc2F)c(=O)c(C(=O)O)cn4-c2ccc(F)cc2F)CC3)C(=O)O1` [Example 8, 7-{7-[5-(Acetylamino-methyl)-2-oxo-oxazolidin-3-yl]-1,2,4,5-tetrahydro-benzo[d]azepin-3-yl}-1-(2,4-difluoro-phenyl)-6-fluoro-4-oxo-1,4-dihydro-[1,8]naphthyridine-3-carboxylic Acid] gave an MIC [1] of 8 µg/mL (≈ 12.9 µM), an MIC [2] of 16 µg/mL (≈ 25.7 µM) and an MIC [3] of 0.5 µg/mL (≈ 0.804 µM). For the same molecule, the MIC [4] was 2 µg/mL (≈ 3.22 µM), the MIC [5] was 0.06 µg/mL (≈ 0.0965 µM) and the MIC [6] was 2 µg/mL (≈ 3.22 µM). The “Inhibitory concentration in E. coli cell-free transcription/translation (TnT) assay” value [7] was 23.0 µg/mL.

`CC(=O)NC[C@H]1CN(c2ccc3c(c2)CCN(c2cc4c(cc2F)c(=O)c(C(=O)O)cn4C2CC2)CC3)C(=O)O1` [Example 9, 7-{7-[5-(Acetylamino-methyl)-2-oxo-oxazolidin-3-yl]-1,2,4,5-tetrahydro-benzo[d]azepin-3-yl}-1-cyclopropyl-6-fluoro-4-oxo-1,4-dihydro-quinoline-3-carboxylic Acid] gave an MIC [1] of 4 µg/mL (≈ 7.29 µM), an MIC [2] of 8 µg/mL (≈ 14.6 µM) and an MIC [3] of 0.13 µg/mL (≈ 0.237 µM). For the same molecule, the MIC [4] was 4 µg/mL (≈ 7.29 µM), the MIC [5] was 0.06 µg/mL (≈ 0.109 µM) and the MIC [6] was 0.5 µg/mL (≈ 0.911 µM). The “Inhibitory concentration in E. coli cell-free transcription/translation (TnT) assay” value [7] was 13.0 µg/mL.

Work on `CC(=O)NC[C@H]1CN(c2ccc3c(c2)CCN(c2c(F)cc4c(=O)c(C(=O)O)cn(C5CC5)c4c2Cl)CC3)C(=O)O1` [Example 10, 7-{7-[5-(Acetylamino-methyl)-2-oxo-oxazolidin-3-yl]-1,2,4,5-tetrahydro-benzo[d]azepin-3-yl}-8-chloro-1-cyclopropyl-6-fluoro-4-oxo-1,4-dihydro-quinoline-3-carboxylic Acid] yielded an MIC [1] of 0.25 µg/mL (≈ 0.429 µM), an MIC [2] of 0.25 µg/mL (≈ 0.429 µM) and an MIC [3] of 0.06 µg/mL (≈ 0.103 µM). For the same molecule, the MIC [4] was 1 µg/mL (≈ 1.72 µM), the MIC [5] was 0.06 µg/mL (≈ 0.103 µM) and the MIC [6] was 0.13 µg/mL (≈ 0.223 µM). The “Inhibitory concentration in E. coli cell-free transcription/translation (TnT) assay” value [7] was 5.4 µg/mL.

For `CC(=O)NC[C@H]1CN(c2ccc3c(c2)CCN(c2cc4c(c(C)c2F)c(=O)c(C(=O)O)cn4C2CC2)CC3)C(=O)O1` [Example 11, 7-{7-[5-(Acetylamino-methyl)-2-oxo-oxazolidin-3-yl]-1,2,4,5-tetrahydro-benzo[d]azepin-3-yl}-1-cyclopropyl-6-fluoro-5-methyl-4-oxo-1,4-dihydro-quinoline-3-carboxylic Acid], the MIC [1] was 16 µg/mL (≈ 28.4 µM), the MIC [2] was 8 µg/mL (≈ 14.2 µM) and the MIC [3] was 0.06 µg/mL (≈ 0.107 µM). For the same molecule, the MIC [4] was 8 µg/mL (≈ 14.2 µM), the MIC [5] was 0.06 µg/mL (≈ 0.107 µM) and the MIC [6] was 0.5 µg/mL (≈ 0.889 µM). For the same molecule, the “Inhibitory concentration in E. coli cell-free transcription/translation (TnT) assay” value [7] was 10 µg/mL.

Work on `CC(=O)NC[C@H]1CN(c2ccc3c(c2)CCN(c2c(F)cc4c(=O)c(C(=O)O)cn(C5CC5)c4c2F)CC3)C(=O)O1` [Example 12, 7-{7-[5-(Acetylamino-methyl)-2-oxo-oxazolidin-3-yl]-1,2,4,5-tetrahydro-benzo[d]azepin-3-yl}-1-cyclopropyl-6,8-difluoro-4-oxo-1,4-dihydro-quinoline-3-carboxylic Acid] yielded an MIC [1] of 1 µg/mL (≈ 1.77 µM), an MIC [2] of 1 µg/mL (≈ 1.77 µM) and an MIC [3] of 0.25 µg/mL (≈ 0.441 µM). It also gave an MIC [4] of 4 µg/mL (≈ 7.06 µM), an MIC [5] of 0.06 µg/mL (≈ 0.106 µM) and an MIC [6] of 0.25 µg/mL (≈ 0.441 µM). For the same molecule, the “Inhibitory concentration in E. coli cell-free transcription/translation (TnT) assay” value [7] was 9.3 µg/mL.

Work on `CC(=O)NC[C@H]1CN(c2ccc3c(c2)CCN(c2nc4c(cc2F)c(=O)c(C(=O)O)cn4C2CC2)CC3)C(=O)O1` [Example 14, 7-{7-[5-(Acetylamino-methyl)-2-oxo-oxazolidin-3-yl]-1,2,4,5-tetrahydro-benzo[d]azepin-3-yl}-1-cyclopropyl-6-fluoro-4-oxo-1,4-dihydro-[1,8]naphthyridine-3-carboxylic Acid] yielded an MIC [1] of 8 µg/mL (≈ 14.6 µM), an MIC [2] of 16 µg/mL (≈ 29.1 µM) and an MIC [3] of 0.5 µg/mL (≈ 0.91 µM). It also gave an MIC [4] of 16 µg/mL (≈ 29.1 µM), an MIC [5] of 0.06 µg/mL (≈ 0.109 µM) and an MIC [6] of 2 µg/mL (≈ 3.64 µM). For the same molecule, the “Inhibitory concentration in E. coli cell-free transcription/translation (TnT) assay” value [7] was 15 µg/mL.

With `CC(=O)NC[C@H]1CN(c2ccc3c(c2)CCCN(c2cc4c(cc2F)c(=O)c(C(=O)O)cn4C2CC2)C3)C(=O)O1` [Example 16, 7-{7-[5-(Acetylamino-methyl)-2-oxo-oxazolidin-3-yl]-1,3,4,5-tetrahydro-benzo[c]azepin-2-yl}-1-cyclopropyl-6-fluoro-4-oxo-1,4-dihydro-quinolne-3-carboxylic Acid] the MIC [1] was 4 µg/mL (≈ 7.29 µM), the MIC [2] was 32 µg/mL (≈ 58.3 µM) and the MIC [3] was 8 µg/mL (≈ 14.6 µM). The MIC [4] was 64 µg/mL (≈ 117 µM), the MIC [5] was 0.125 µg/mL (≈ 0.228 µM) and the MIC [6] was 16 µg/mL (≈ 29.2 µM). The “Inhibitory concentration in E. coli cell-free transcription/translation (TnT) assay” value [7] was 10 µg/mL.
